Some test systems named below: A498 renal; COLO 205 colon; SW-620 colon; HCT-15 colon; HCT-116 colon; UACC-257 melanoma; MDA-MB-435; CCRF-CEM leukemia; OVCAR-5 ovarian; KM12 colon.
Test in all cases: growth of human tumour cells (NCI), 48 h

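Protocol summary: plate cells (96-well), add compound at 5 concentrations, incubate 48 h, interpolate endpoints linearly. Abbreviation: GI50, concentration required for 50% inhibition of growth. TGI: concentration producing complete growth inhibition.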

On to `Brc1ccc2[nH]cc(-c3nc(-c4c[nH]c5ncccc45)cs3)c2c1`, for which the GI50 is 1.94 µM in the assay with A498 renal; 1.13 µM in the assay on COLO 205 colon; 3.79 µM in the assay with SW-620 colon; 2.41 µM in the assay on HCT-15 colon; 3.09 µM in the assay with HCT-116 colon; 2.5 µM with UACC-257 melanoma. Also, the GI50 in the assay with MDA-MB-435 was 4.04 µM; in the assay on CCRF-CEM leukemia, 3.99 µM; with OVCAR-5 ovarian it was 4.49 µM; in the assay with KM12 colon, 2.92 µM. Also, the TGI was found to be 10.9 µM in the assay with A498 renal; 5.77 µM in the assay on COLO 205 colon; 14.1 µM in the assay with SW-620 colon; 6.86 µM in the assay with HCT-15 colon; 12.2 µM with HCT-116 colon; 7.26 µM with UACC-257 melanoma. Besides, the TGI in the assay on MDA-MB-435 amounted to 15.8 µM; in the assay with CCRF-CEM leukemia, 71.8 µM; with OVCAR-5 ovarian, 17.6 µM; in the assay on KM12 colon it was 10.4 µM.

Consider `COc1cccc(-c2nn(-c3ccccc3)cc2-c2ccnc(NCCNC(=O)Nc3cccc(C(F)(F)F)c3)c2)c1`, for which the GI50 in the assay with A498 renal was 2.49 µM; with COLO 205 colon, 1.88 µM; in the assay on SW-620 colon, 1.91 µM; in the assay on HCT-15 colon, 1.7 µM; with HCT-116 colon, 2.88 µM; with UACC-257 melanoma, 2.14 µM. Also, the GI50 was 1.75 µM in the assay with MDA-MB-435, 2.46 µM with CCRF-CEM leukemia, 1.51 µM with OVCAR-5 ovarian and 2.08 µM in the assay with KM12 colon. For the same molecule, the TGI came out at 8.37 µM with A498 renal; 3.78 µM with COLO 205 colon; 3.81 µM in the assay on SW-620 colon; 3.71 µM with HCT-15 colon; 11.8 µM with HCT-116 colon; 4.81 µM in the assay on UACC-257 melanoma. Moreover, the TGI in the assay on MDA-MB-435 came to 3.38 µM; in the assay with CCRF-CEM leukemia, 7 µM; in the assay with OVCAR-5 ovarian, 3.63 µM; in the assay with KM12 colon it was 4.54 µM.

In the case of `Nc1nc(N)c(C=Nc2ccc(Br)cc2)c(Nc2ccc(Br)cc2)n1`, the GI50 in the assay with A498 renal was 10.6 µM; with COLO 205 colon, 14.5 µM; with SW-620 colon it was 14.1 µM; with HCT-15 colon, 7.44 µM; with HCT-116 colon, 6.46 µM; with UACC-257 melanoma, 14.7 µM. In addition, the GI50 in the assay with MDA-MB-435 was 10.5 µM; in the assay on CCRF-CEM leukemia it was 9.3 µM; in the assay on OVCAR-5 ovarian it was 9.98 µM; with KM12 colon, 4.22 µM. In addition, the TGI is 22.4 µM in the assay on A498 renal; 34.6 µM in the assay on COLO 205 colon; 99.1 µM in the assay on SW-620 colon; 34.4 µM in the assay with HCT-15 colon; 19.2 µM with HCT-116 colon; 30.7 µM in the assay on UACC-257 melanoma. The TGI in the assay with MDA-MB-435 worked out at 27.6 µM; in the assay with CCRF-CEM leukemia, 26.2 µM; in the assay on OVCAR-5 ovarian, 21.5 µM; in the assay with KM12 colon it was 18.4 µM.

For the molecule `CN(Cc1cccc(F)c1)c1ccc(CO)c(Cl)c1`, the GI50 in the assay on A498 renal is 0.057 µM; in the assay with COLO 205 colon, 5.46 µM; with SW-620 colon, 5.13 µM; with HCT-15 colon, 17.7 µM; in the assay with HCT-116 colon it was 0.392 µM; with UACC-257 melanoma, 0.304 µM. Moreover, the GI50 was 15.7 µM with MDA-MB-435, 31.1 µM in the assay on CCRF-CEM leukemia, 0.41 µM in the assay on OVCAR-5 ovarian and 20.5 µM with KM12 colon. Moreover, the TGI was 0.189 µM in the assay with A498 renal; 19.3 µM with COLO 205 colon; above 100 µM in the assay on SW-620 colon; above 83.2 µM in the assay with HCT-15 colon; 13.7 µM with HCT-116 colon; 1.33 µM with UACC-257 melanoma. The TGI in the assay on MDA-MB-435 was 57.6 µM; in the assay with CCRF-CEM leukemia, above 100 µM; with OVCAR-5 ovarian, 2.61 µM; in the assay with KM12 colon, 79.6 µM.

For `CCOC(=O)c1c(C)n(Cc2ccccc2)c2c1cc(O)c1[nH]c(Cc3ccccc3)nc12`, the GI50 with A498 renal is 28.5 µM; with COLO 205 colon, 24.7 µM; in the assay with SW-620 colon it was 22.1 µM; in the assay on HCT-15 colon, 4.66 µM; with HCT-116 colon it was 5.91 µM; in the assay with UACC-257 melanoma, 16.2 µM. The GI50 was above 42.8 µM with MDA-MB-435, above 21.4 µM in the assay on CCRF-CEM leukemia, above 22.7 µM in the assay with OVCAR-5 ovarian and 4.36 µM in the assay with KM12 colon. For the same molecule, the TGI was above 86.1 µM with A498 renal; above 54.8 µM with COLO 205 colon; above 60 µM in the assay with SW-620 colon; above 100 µM in the assay on HCT-15 colon; above 43.5 µM with HCT-116 colon; above 70.2 µM in the assay on UACC-257 melanoma. The TGI is above 100 µM in the assay with MDA-MB-435, above 100 µM with CCRF-CEM leukemia, above 61 µM in the assay with OVCAR-5 ovarian and above 43.7 µM in the assay on KM12 colon.

As for `Oc1ccc(-c2nc3ccc4[nH]ncc4c3c3c2CCCC3)c(F)c1`, the GI50 in the assay on A498 renal is 2.25 µM; with COLO 205 colon, 2.25 µM; in the assay on SW-620 colon, 1.41 µM; in the assay on HCT-15 colon it was 2.26 µM; in the assay with HCT-116 colon it was 0.739 µM; in the assay on UACC-257 melanoma it was 1.84 µM. Besides, the GI50 is 1.75 µM in the assay on MDA-MB-435, 2.05 µM in the assay on CCRF-CEM leukemia, 4.41 µM with OVCAR-5 ovarian and 0.362 µM in the assay with KM12 colon. The TGI in the assay on A498 renal was determined as 6.51 µM; in the assay on COLO 205 colon, 5.56 µM; with SW-620 colon it was 8.29 µM; in the assay on HCT-15 colon, 11.3 µM; in the assay with HCT-116 colon it was 11 µM; with UACC-257 melanoma, 5.34 µM. Besides, the TGI in the assay with MDA-MB-435 is 10.9 µM; in the assay with CCRF-CEM leukemia, 11.4 µM; in the assay on OVCAR-5 ovarian it was 17.6 µM; with KM12 colon it was 13.2 µM.

Turning to `CC(C)N1CCN(Cc2ccc3c(NNC(=O)c4ccccc4)nc4cc(F)ccc4n23)CC1`, the GI50 in the assay with A498 renal was 0.564 µM; in the assay with COLO 205 colon it was 0.273 µM; in the assay on SW-620 colon, 0.463 µM; with HCT-15 colon, 0.0563 µM; in the assay with HCT-116 colon, 0.238 µM; in the assay on UACC-257 melanoma, 0.81 µM. In addition, the GI50 in the assay on MDA-MB-435 is 0.655 µM; in the assay on CCRF-CEM leukemia it was 0.146 µM; with OVCAR-5 ovarian, 0.674 µM; with KM12 colon it was 0.397 µM. Further, the TGI in the assay with A498 renal came out at 4.12 µM; in the assay with COLO 205 colon it was 3.47 µM; with SW-620 colon, 2.12 µM; with HCT-15 colon, 3.91 µM; in the assay on HCT-116 colon it was 1.45 µM; in the assay on UACC-257 melanoma, 11.9 µM. In addition, the TGI was 15.1 µM with MDA-MB-435, 4.09 µM in the assay on CCRF-CEM leukemia, 6.83 µM in the assay on OVCAR-5 ovarian and 11 µM in the assay with KM12 colon.

(Values after PubChem BioAssay (NCI).)
